Results as given in patent US6737383B1, “Herbicidal oxadiazolidines” (priority 1999, dated 2004).

How the values were obtained:
bedstraw = test: Test B pre/postemergence bedstraw; type: in vivo, Galium aparine
Outline: (§1)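 Herbicidal effect was estimated by eye on a ten-point control scale after plants spent twelve to sixteen days in a greenhouse following soil or foliar treatment. Foliar sprays targeted plants at one to four leaves; all doses were formulated in a non-phytotoxic solvent with surfactant.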

blackgrass = test: Test B pre/postemergence blackgrass; type: in vivo, Alopecurus myosuroides
Outline: as §1

surinam grass = test: Test B pre/postemergence surinam grass; type: in vivo, Brachiaria decumbens
Outline: as §1

cocklebur = test: Test B pre/postemergence cocklebur; type: in vivo, Xanthium strumarium
Outline: as §1

corn = test: Test B pre/postemergence corn; type: in vivo, Zea mays
Outline: as §1

crabgrass = test: Test B pre/postemergence crabgrass; type: in vivo, Digitaria sanguinalis
Outline: as §1

giant foxtail = test: Test B pre/postemergence giant foxtail; type: in vivo, Setaria faberii
Outline: as §1

morningglory = test: Test B pre/postemergence morningglory; type: in vivo, Ipomoea hederacea
Outline: as §1

pigweed = test: Test B pre/postemergence pigweed; type: in vivo, Amaranthus retroflexus
Outline: as §1

rape = test: Test B pre/postemergence rape; type: in vivo, Brassica napus
Outline: as §1

soybean = test: Test B pre/postemergence soybean; type: in vivo, Glycine max
Outline: as §1

sugar beet = test: Test B pre/postemergence sugar beet; type: in vivo, Beta vulgaris
Outline: as §1

velvetleaf = test: Test B pre/postemergence velvetleaf; type: in vivo, Abutilon theophrasti
Outline: as §1

wheat = test: Test B pre/postemergence wheat; type: in vivo, Triticum aestivum
Outline: as §1

wild oat = test: Test B pre/postemergence wild oat; type: in vivo, Avena fatua
Outline: as §1

purple nutsedge = test: Test B pre/postemergence purple nutsedge; type: in vivo, Cyperus rotundus; conditions: Preemergence
Outline: as §1

smallflower flatsedge = test: Test B flood test smallflower flatsedge; type: in vivo, Cyperus difformis
Outline: (§2)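 Read-out is a visual response score from 0 (no effect) to 10 (complete control), assigned by comparison with untreated controls. Treatment was applied at the 2-leaf stage, and plants stayed in the greenhouse for twelve to sixteen days before scoring.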

duck salad = test: Test B flood test duck salad; type: in vivo, Heteranthera limosa
Outline: as §2

bamyardgrass = test: Test B flood test barnyardgrass; type: in vivo, Echinochloa crus-galli
Outline: as §2

[1] = Postemergence, Rate 62 g/ha, scale of 0 to 10, 0 is no effect, 10 is complete control
[2] = Postemergence, Rate 125 g/ha, scale 0 to 10, 0 is no effect, 10 is complete control
[3] = Postemergence, Rate 500 g/ha, scale 0 to 10, 0 is no effect, 10 is complete control
[4] = Preemergence, Rate 62 g/ha, scale 0 to 10 (0 no effect, 10 complete control)
[5] = Rate 250 g/ha, Postemergence, scale of 0 to 10 where 0 is no effect and 10 is complete control
[6] = Preemergence, Rate 125 g/ha, scale 0 to 10, 0 is no effect, 10 is complete control
[7] = Preemergence, Rate 500 g/ha, scale of 0 to 10 where 0 is no effect and 10 is complete control
[8] = Rate 62 g/ha, flood test species, Pre-emergence, visual evaluation after twelve to sixteen days
[9] = Rate 125 g/ha, under heading Pre-emergence, flood test species, visual evaluation after twelve to sixteen days
[10] = Rate 250 g/ha, Pre-emergence (flood test species), scale 0 to 10, 0 is no effect, 10 is complete control
[11] = Rate 500 g/ha, Pre-emergence section of Table B, 0 to 10 scale (0 no effect, 10 complete control)

C=CCCCn1c(=O)on(C(=O)N(c2ccc(Cl)cc2)C(C)C)c1=O [Compound 546]
Bedstraw plant response rating (bedstraw; [1]): 0
Bedstraw plant response rating (bedstraw; [2]): 9
Plant response rating, Bedstraw (bedstraw; [3]): 9
Bedstraw plant response rating (bedstraw; [4]): 0
Bedstraw plant response rating (0 to 10 scale) (bedstraw; Preemergence, Rate 250 g/ha): 8
Plant response rating, Bedstraw (bedstraw; [5]): 9
Blackgrass plant response rating (blackgrass; [1]): 0
Blackgrass plant response rating (blackgrass; [2]): 0
Plant response rating, Blackgrass (blackgrass; [3]): 6
Blackgrass plant response rating (blackgrass; [4]): 0
Blackgrass plant response rating (blackgrass; [6]): 0
Blackgrass plant response rating (0 to 10 scale) (blackgrass; Preemergence, Rate 250 g/ha): 0
Blackgrass plant response rating (blackgrass; [7]): 3
Plant response rating, Blackgrass (blackgrass; [5]): 3
B. signalgrass plant response rating (surinam grass; [1]): 0
B. signalgrass plant response rating (surinam grass; [2]): 0
Plant response rating, B. signalgrass (surinam grass; [3]): 0
B. signalgrass plant response rating (surinam grass; [4]): 0
B. signalgrass plant response rating (0 to 10 scale, 0 is no effect, 10 is complete control) (surinam grass; Preemergence, Rate 250 g/ha): 0
B. signalgrass plant response rating (surinam grass; [7]): 2
Plant response rating, B. signalgrass (surinam grass; [5]): 0
Cocklebur plant response rating (cocklebur; [1]): 0
Cocklebur plant response rating (cocklebur; [2]): 0
Plant response rating, Cocklebur (cocklebur; [3]): 0
Cocklebur plant response rating (cocklebur; [4]): 0
Cocklebur plant response rating (cocklebur; [6]): 0
Cocklebur plant response rating (0 to 10 scale) (cocklebur; Preemergence, Rate 250 g/ha): 0
Cocklebur plant response rating (cocklebur; [7]): 0
Plant response rating, Cocklebur (cocklebur; [5]): 0
Corn plant response rating (corn; [1]): 0
Corn plant response rating (corn; [2]): 0
Plant response rating, Corn (corn; [3]): 0
Corn plant response rating (corn; [4]): 0
Corn plant response rating (corn; [6]): 0
Corn plant response rating (0 to 10 scale) (corn; Preemergence, Rate 250 g/ha): 0
Corn plant response rating (corn; [7]): 0
Plant response rating, Corn (corn; [5]): 0
Crabgrass plant response rating (crabgrass; [1]): 1
Crabgrass plant response rating (crabgrass; [2]): 7
Plant response rating, Crabgrass (crabgrass; [3]): 10
Crabgrass plant response rating (crabgrass; [4]): 7
Crabgrass plant response rating (crabgrass; [6]): 7
Crabgrass plant response rating (0 to 10 scale) (crabgrass; Preemergence, Rate 250 g/ha): 10
Crabgrass plant response rating (crabgrass; [7]): 10
Plant response rating, Crabgrass (crabgrass; [5]): 7
Giant foxtail plant response rating (giant foxtail; [1]): 0
Plant response rating, Giant foxtail (giant foxtail; [3]): 7
Giant foxtail plant response rating (giant foxtail; [6]): 4
Giant foxtail plant response rating (0 to 10 scale) (giant foxtail; Preemergence, Rate 250 g/ha): 10
Giant foxtail plant response rating (giant foxtail; [7]): 10
Plant response rating, Giant foxtail (giant foxtail; [5]): 4
Morningglory plant response rating (morningglory; [1]): 0
Morningglory plant response rating (morningglory; [2]): 4
Plant response rating, Morningglory (morningglory; [3]): 10
Morningglory plant response rating (morningglory; [4]): 0
Morningglory plant response rating (morningglory; [6]): 0
Morningglory plant response rating (0 to 10 scale) (morningglory; Preemergence, Rate 250 g/ha): 0
Morningglory plant response rating (morningglory; [7]): 0
Plant response rating, Morningglory (morningglory; [5]): 5
Redroot pigweed plant response rating (pigweed; [1]): 0
Plant response rating, Redroot pigweed (pigweed; [3]): 3
Redroot pigweed plant response rating (pigweed; [6]): 3
Redroot pigweed plant response rating (0 to 10 scale) (pigweed; Preemergence, Rate 250 g/ha): 10
Plant response rating, Redroot pigweed (pigweed; [5]): 0
Rape plant response rating (rape; [1]): 0
Rape plant response rating (rape; [2]): 0
Plant response rating, Rape (rape; [3]): 7
Rape plant response rating (rape; [4]): 0
Rape plant response rating (rape; [6]): 0
Rape plant response rating (0 to 10 scale) (rape; Preemergence, Rate 250 g/ha): 0
Rape plant response rating (rape; [7]): 0
Plant response rating, Rape (rape; [5]): 7
Soybean plant response rating (soybean; [1]): 1
Soybean plant response rating (soybean; [2]): 1
Plant response rating, Soybean (soybean; [3]): 4
Soybean plant response rating (soybean; [4]): 0
Soybean plant response rating (soybean; [6]): 0
Soybean plant response rating (0 to 10 scale) (soybean; Preemergence, Rate 250 g/ha): 0
Soybean plant response rating (soybean; [7]): 0
Plant response rating, Soybean (soybean; [5]): 2
Sugarbeets plant response rating (sugar beet; [1]): 0
Sugarbeets plant response rating (sugar beet; [2]): 0
Plant response rating, Sugarbeets (sugar beet; [3]): 5
Sugarbeets plant response rating (sugar beet; [4]): 0
Sugarbeets plant response rating (sugar beet; [6]): 0
Sugarbeets plant response rating (0 to 10 scale) (sugar beet; Preemergence, Rate 250 g/ha): 2
Sugarbeets plant response rating (sugar beet; [7]): 2
Plant response rating, Sugarbeets (sugar beet; [5]): 4
Velvetleaf plant response rating (velvetleaf; [1]): 0
Velvetleaf plant response rating (velvetleaf; [2]): 0
Plant response rating, Velvetleaf (velvetleaf; [3]): 2
Velvetleaf plant response rating (velvetleaf; [4]): 0
Velvetleaf plant response rating (velvetleaf; [6]): 0
Velvetleaf plant response rating (0 to 10 scale) (velvetleaf; Preemergence, Rate 250 g/ha): 0
Velvetleaf plant response rating (velvetleaf; [7]): 2
Wheat plant response rating (wheat; [1]): 0
Wheat plant response rating (wheat; [2]): 0
Plant response rating, Wheat (wheat; [3]): 0
Wheat plant response rating (wheat; [4]): 0
Wheat plant response rating (wheat; [6]): 0
Wheat plant response rating (0 to 10 scale) (wheat; Preemergence, Rate 250 g/ha): 0
Wheat plant response rating (wheat; [7]): 0
Plant response rating, Wheat (wheat; [5]): 0
Wild oats plant response rating (wild oat; [1]): 0
Wild oats plant response rating (wild oat; [2]): 0
Plant response rating, Wild oats (wild oat; [3]): 2
Wild oats plant response rating (wild oat; [4]): 0
Wild oats plant response rating (wild oat; [6]): 0
Wild oats plant response rating (0 to 10 scale) (wild oat; Preemergence, Rate 250 g/ha): 0
Wild oats plant response rating (wild oat; [7]): 3
Plant response rating, Wild oats (wild oat; [5]): 0
Nutsedge plant response rating (purple nutsedge; Rate 62 g/ha, scale 0 to 10 (0 no effect, 10 complete control)): 0
Nutsedge plant response rating (purple nutsedge; Rate 125 g/ha, scale 0 to 10, 0 is no effect, 10 is complete control): 0
Nutsedge plant response rating (0 to 10 scale) (purple nutsedge; Rate 250 g/ha): 0
Nutsedge plant response rating (purple nutsedge; Rate 500 g/ha, scale of 0 to 10 where 0 is no effect and 10 is complete control): 0
Plant response rating, S. Flatsedge (0 to 10 scale, 0 is no effect, 10 is complete control) (smallflower flatsedge; [8]): 0
S. Flatsedge plant response rating (0 to 10 scale, 0 is no effect, 10 is complete control) (smallflower flatsedge; [9]): 0
S. Flatsedge plant response rating (smallflower flatsedge; [10]): 0
S. Flatsedge plant response rating (smallflower flatsedge; [11]): 0
Plant response rating, Ducksalad (0 to 10 scale, 0 is no effect, 10 is complete control) (duck salad; [8]): 0
Ducksalad plant response rating (0 to 10 scale, 0 is no effect, 10 is complete control) (duck salad; [9]): 0
Ducksalad plant response rating (duck salad; [10]): 0
Ducksalad plant response rating (duck salad; [11]): 0
Plant response rating, Barnyardgrass (0 to 10 scale, 0 is no effect, 10 is complete control) (bamyardgrass; [8]): 0
Barnyardgrass plant response rating (0 to 10 scale, 0 is no effect, 10 is complete control) (bamyardgrass; [9]): 0
Barnyardgrass plant response rating (bamyardgrass; [10]): 0
Barnyardgrass plant response rating (bamyardgrass; [11]): 0
